Results published in ChEMBL document CHEMBL5653631, “A Potent and Selective ULK1 Inhibitor Suppresses Autophagy and Sensitizes Cancer Cells to Nutrient Stress” (iScience, 2018).

Tests used:
[1] = biological target: Calcium/calmodulin-dependent protein kinase type 1B (Homo sapiens) (UniProt Q6P2M8); experiment: Inhibition of human recombinant CaMK1b at 40 nM in presence of ATP by radiometric assay relative to control
[2] = biological target: T1, Inhibitor of nuclear factor kappa-B kinase subunit epsilon (Homo sapiens) (UniProt Q14164); experiment: Inhibition of human recombinant IKKe at 40 nM in presence of ATP by radiometric assay relative to control
T1 sequence (whole entry): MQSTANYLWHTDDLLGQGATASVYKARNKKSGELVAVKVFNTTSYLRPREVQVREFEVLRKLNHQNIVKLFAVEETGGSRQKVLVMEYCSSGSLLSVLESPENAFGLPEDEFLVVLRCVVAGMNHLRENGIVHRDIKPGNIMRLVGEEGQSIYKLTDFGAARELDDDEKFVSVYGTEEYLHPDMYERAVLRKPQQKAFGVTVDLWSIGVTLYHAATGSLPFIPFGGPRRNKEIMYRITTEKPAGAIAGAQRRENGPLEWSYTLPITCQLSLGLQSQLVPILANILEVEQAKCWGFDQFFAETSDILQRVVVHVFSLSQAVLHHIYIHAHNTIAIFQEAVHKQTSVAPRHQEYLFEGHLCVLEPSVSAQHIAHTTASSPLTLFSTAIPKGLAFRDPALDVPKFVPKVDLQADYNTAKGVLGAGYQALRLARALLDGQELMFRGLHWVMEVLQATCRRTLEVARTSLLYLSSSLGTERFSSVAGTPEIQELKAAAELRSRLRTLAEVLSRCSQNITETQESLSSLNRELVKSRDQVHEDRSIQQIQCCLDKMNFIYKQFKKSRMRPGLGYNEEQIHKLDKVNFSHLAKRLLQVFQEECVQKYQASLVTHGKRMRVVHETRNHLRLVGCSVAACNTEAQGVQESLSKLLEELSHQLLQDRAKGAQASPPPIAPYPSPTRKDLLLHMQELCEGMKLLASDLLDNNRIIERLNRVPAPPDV

[3] = biological target: Serine/threonine-protein kinase 38-like (Homo sapiens) (UniProt Q9Y2H1); experiment: Inhibition of human recombinant NDR2 at 40 nM related to control ULK1
Chain of Serine/threonine-protein kinase 38-like (Homo sapiens) (Q9Y2H1 2-464 limits assumed): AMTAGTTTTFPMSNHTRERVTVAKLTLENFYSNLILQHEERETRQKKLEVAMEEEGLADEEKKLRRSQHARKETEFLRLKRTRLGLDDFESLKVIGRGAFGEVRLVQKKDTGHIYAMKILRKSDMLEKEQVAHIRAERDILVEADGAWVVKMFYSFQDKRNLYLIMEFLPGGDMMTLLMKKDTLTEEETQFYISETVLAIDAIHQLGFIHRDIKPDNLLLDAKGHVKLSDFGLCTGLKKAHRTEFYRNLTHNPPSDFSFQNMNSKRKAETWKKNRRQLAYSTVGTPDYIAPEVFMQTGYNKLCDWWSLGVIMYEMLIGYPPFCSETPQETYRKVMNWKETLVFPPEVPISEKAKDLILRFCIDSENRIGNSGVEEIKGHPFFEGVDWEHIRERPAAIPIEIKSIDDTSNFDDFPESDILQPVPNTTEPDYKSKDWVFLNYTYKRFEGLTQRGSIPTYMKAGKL

[4] = biological target: T1, Inhibitor of nuclear factor kappa-B kinase subunit epsilon (Homo sapiens); experiment: Inhibition of human recombinant IKKe at 500 nM in presence of ATP by radiometric assay relative to control
[5] = biological target: T2, Serine/threonine-protein kinase NLK (Homo sapiens) (UniProt Q9UBE8); experiment: Inhibition of human recombinant NLK at 500 nM in presence of ATP by radiometric assay relative to control
T2 sequence (whole entry): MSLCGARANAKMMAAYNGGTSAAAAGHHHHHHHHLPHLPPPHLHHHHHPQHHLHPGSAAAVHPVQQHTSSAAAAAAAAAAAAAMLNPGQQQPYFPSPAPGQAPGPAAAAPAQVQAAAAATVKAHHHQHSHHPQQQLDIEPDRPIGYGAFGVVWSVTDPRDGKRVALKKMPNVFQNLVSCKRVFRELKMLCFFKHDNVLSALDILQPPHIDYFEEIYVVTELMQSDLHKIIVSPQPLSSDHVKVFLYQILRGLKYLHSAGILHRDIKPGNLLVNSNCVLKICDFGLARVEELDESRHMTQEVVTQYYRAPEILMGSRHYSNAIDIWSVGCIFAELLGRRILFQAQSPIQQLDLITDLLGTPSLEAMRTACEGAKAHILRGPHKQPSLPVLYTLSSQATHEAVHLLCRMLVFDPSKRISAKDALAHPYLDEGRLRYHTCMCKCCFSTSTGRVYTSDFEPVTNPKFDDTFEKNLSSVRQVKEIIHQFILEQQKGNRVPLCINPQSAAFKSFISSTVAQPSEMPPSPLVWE

[6] = biological target: T3, TGF-beta receptor type-1 (Homo sapiens) (UniProt P36897); experiment: Inhibition of human recombinant TGFbR1 at 500 nM in presence of ATP by radiometric assay relative to control
T3 sequence (whole entry): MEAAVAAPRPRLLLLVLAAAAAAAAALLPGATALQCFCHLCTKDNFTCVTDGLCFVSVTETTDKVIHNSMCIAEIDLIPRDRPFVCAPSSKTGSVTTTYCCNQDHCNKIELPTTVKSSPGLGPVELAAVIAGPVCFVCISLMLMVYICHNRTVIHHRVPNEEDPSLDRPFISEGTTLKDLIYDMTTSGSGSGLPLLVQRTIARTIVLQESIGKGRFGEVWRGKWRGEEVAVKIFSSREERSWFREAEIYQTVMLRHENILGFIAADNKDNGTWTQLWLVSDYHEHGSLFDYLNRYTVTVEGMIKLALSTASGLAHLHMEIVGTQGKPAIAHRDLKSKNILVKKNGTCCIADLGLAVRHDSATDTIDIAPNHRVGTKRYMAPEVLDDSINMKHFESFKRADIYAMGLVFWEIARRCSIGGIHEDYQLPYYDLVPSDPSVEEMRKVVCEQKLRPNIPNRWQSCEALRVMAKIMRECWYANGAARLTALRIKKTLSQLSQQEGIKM

[7] = biological target: High affinity nerve growth factor receptor (Homo sapiens) (UniProt P04629); experiment: Inhibition of human recombinant TRKA at 500 nM in presence of ATP by radiometric assay relative to control
Chain of High affinity nerve growth factor receptor (Homo sapiens) (P04629 33-796 limits assumed): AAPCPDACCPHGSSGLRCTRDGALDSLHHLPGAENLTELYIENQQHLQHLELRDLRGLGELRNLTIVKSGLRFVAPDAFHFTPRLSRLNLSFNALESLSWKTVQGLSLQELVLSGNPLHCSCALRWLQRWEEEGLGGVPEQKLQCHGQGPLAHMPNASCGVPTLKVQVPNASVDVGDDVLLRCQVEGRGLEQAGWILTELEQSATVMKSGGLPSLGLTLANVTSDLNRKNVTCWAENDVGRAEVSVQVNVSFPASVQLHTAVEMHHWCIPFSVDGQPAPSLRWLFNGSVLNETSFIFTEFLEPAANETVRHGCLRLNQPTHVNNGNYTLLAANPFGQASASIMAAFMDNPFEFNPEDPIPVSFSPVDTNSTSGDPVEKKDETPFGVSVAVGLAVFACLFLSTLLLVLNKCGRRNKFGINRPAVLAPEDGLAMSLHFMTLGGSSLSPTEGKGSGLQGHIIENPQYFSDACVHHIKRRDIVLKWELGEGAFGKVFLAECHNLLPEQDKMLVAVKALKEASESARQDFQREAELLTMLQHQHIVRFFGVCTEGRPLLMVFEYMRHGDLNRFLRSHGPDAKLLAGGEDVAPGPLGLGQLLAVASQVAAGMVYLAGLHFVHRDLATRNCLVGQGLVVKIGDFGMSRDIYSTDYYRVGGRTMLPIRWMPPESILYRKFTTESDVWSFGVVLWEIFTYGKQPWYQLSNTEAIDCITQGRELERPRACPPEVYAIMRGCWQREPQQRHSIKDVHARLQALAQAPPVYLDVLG

[8] = biological target: T4, Inhibitor of nuclear factor kappa-B kinase subunit beta (Homo sapiens) (UniProt O14920); experiment: Inhibition of human recombinant IKKb at 500 nM related to control ULK1
T4 sequence (whole entry): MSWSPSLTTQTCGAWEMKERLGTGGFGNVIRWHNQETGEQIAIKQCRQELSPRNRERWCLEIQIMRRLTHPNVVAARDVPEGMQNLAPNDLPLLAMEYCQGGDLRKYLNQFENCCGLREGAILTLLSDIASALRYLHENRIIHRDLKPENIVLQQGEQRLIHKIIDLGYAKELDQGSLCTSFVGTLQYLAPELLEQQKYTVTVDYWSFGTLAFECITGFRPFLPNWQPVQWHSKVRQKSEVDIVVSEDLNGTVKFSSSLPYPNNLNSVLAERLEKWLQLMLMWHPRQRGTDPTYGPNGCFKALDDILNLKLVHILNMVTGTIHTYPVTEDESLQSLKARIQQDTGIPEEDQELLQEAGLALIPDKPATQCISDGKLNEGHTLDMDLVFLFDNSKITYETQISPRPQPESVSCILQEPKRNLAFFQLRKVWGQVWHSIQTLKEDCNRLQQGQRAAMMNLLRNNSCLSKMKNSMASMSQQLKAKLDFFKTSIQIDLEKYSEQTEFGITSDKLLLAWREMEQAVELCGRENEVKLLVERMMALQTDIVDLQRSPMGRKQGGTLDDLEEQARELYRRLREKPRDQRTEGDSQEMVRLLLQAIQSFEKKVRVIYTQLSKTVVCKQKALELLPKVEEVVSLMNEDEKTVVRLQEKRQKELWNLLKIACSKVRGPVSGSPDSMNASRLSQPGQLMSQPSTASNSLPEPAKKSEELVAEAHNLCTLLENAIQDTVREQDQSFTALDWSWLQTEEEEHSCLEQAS

[9] = biological target: Mitogen-activated protein kinase 8 (Homo sapiens) (UniProt P45983); experiment: Inhibition of human recombinant JNK1 at 15 nM related to control ULK1
Chain of Mitogen-activated protein kinase 8 (Homo sapiens) (P45983 whole entry): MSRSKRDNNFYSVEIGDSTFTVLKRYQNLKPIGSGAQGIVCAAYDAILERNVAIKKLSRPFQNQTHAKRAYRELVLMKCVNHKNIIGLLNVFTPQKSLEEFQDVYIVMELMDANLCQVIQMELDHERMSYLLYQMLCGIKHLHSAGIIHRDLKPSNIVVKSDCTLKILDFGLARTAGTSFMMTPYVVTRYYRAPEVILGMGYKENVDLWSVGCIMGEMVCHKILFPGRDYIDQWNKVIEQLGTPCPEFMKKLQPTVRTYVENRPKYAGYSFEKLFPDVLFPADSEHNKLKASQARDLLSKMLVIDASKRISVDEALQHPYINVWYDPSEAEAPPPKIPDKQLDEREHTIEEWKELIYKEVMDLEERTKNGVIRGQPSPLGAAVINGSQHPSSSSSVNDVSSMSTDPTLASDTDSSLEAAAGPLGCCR

Chain of Calcium/calmodulin-dependent protein kinase type 1B (Homo sapiens) (Q6P2M8 whole entry): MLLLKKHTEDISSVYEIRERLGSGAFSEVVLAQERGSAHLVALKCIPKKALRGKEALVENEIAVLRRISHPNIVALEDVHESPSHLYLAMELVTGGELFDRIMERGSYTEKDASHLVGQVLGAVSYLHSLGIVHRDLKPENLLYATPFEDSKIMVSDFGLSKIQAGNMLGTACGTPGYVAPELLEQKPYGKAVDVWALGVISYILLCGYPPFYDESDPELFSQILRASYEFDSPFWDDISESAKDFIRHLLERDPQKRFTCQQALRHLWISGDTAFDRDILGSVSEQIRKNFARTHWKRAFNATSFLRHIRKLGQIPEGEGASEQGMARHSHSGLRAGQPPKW

SMILES: O=C(N[C@@H](C1CC1)C(F)(F)F)c1cc(-c2cnn3cc(-c4ccc(F)cc4)cnc23)cs1
- inhibition [1]: 0%
- inhibition [2]: 30%
- fold change (FC) [3]: 0

SMILES: CNC(=O)c1ccccc1Oc1nc(Nc2cc(OC)c(OC)c(OC)c2)ncc1Br
- inhibition [4]: 0%
- inhibition [5]: 4%
- inhibition [6]: 0%
- inhibition [7]: 52%
- fold change (FC) [8]: 0.03

SMILES: CC(C)[C@H](NC(=O)c1cc(-c2cnn3cc(-c4ccc(OCCN5CCCCC5)cc4)cnc23)cs1)C(F)(F)F
- fold change (FC) [9]: 0.09
